# Measurements published in EP0384661A1, “Antialgal compositions comprising diphenylethers” (ROHM AND HAAS COMPANY, priority 1989, dated 1990).
# Structures can show the parent of a compound that is named as a salt.
# Columns and labels:
# [1] = system: Mixed Cooling Tower Culture; test: MIC microtiter plate assay; type: cell-based, mixed culture of algae; conditions: growth/no-growth after 14 or 21 days, 25°C
# Method: (§1) Efficacy studies were conducted on a variety of microorganisms with oxyfluorfen. Minimum Inhibitory Concentration (MIC) studies were conducted using microtiter plate assays. In this method, a wide range of concentrations was tested by preparing two-fold serial dilutions of the compound in 96-well plastic microtiter plates. All liquid media transfers were performed with calibrated single or multichannel digital pipetters. Stock solutions of compounds were prepared in appropriate solvents and dispensed to the growth medium. All subsequent dilutions in plates were made using the desired growth medium. The total volume of liquid in each well was 100 ul. The pure cultures used in this study were obtained from the Culture Collection of Algae at the University of Texas at Austin (UTEX). The mixed culture of algae was obtained from a cooling tower biofilm and maintained in liquid medium; microorganisms used as inocula were cultured in shaken liquid culture (50 ml of Bristol's medium, pH 7.0, 25°C); Journal of Phycology, 23s: 1-47, 1987) for one week or as needed to attain a desired cell mass. The cultures were then inoculated into the microtiter plates using a 96-prong multiple inoculator (5 µl inoculum); each well received a standard suspension of biomass (5% inoculum). Plates were incubated at 25°C under constant illumination (500 ft candles). The extent of growth was determined under low magnification with the aid of a microtiter plate reader. The growth in each cell was monitored periodically and growth/no-growth was recorded after 14 or 21 days. […] Following the evaluation procedure of Example 3, compounds according to the following structural formula, with X and Y substituents according to Table 4A, were evaluated with the results shown in Table 4B. [drawing 4]
# Anabaena flos-aquae = test: MIC microtiter plate assay; type: cell-based; conditions: Dolichospermum flos-aquae; growth/no-growth after 14 or 21 days, 25°C
# Method: as §1
# Chlorella pyrenoidosa = test: MIC microtiter plate assay; type: cell-based; conditions: growth/no-growth after 14 or 21 days, 25°C
# Method: (§2) Efficacy studies were conducted on a variety of microorganisms with oxyfluorfen. Minimum Inhibitory Concentration (MIC) studies were conducted using microtiter plate assays. In this method, a wide range of concentrations was tested by preparing two-fold serial dilutions of the compound in 96-well plastic microtiter plates. All liquid media transfers were performed with calibrated single or multichannel digital pipetters. Stock solutions of compounds were prepared in appropriate solvents and dispensed to the growth medium. All subsequent dilutions in plates were made using the desired growth medium. The total volume of liquid in each well was 100 ul. The pure cultures used in this study were obtained from the Culture Collection of Algae at the University of Texas at Austin (UTEX). The mixed culture of algae was obtained from a cooling tower biofilm and maintained in liquid medium; microorganisms used as inocula were cultured in shaken liquid culture (50 ml of Bristol's medium, pH 7.0, 25°C); Journal of Phycology, 23s: 1-47, 1987) for one week or as needed to attain a desired cell mass. The cultures were then inoculated into the microtiter plates using a 96-prong multiple inoculator (5 µl inoculum); each well received a standard suspension of biomass (5% inoculum). Plates were incubated at 25°C under constant illumination (500 ft candles). The extent of growth was determined under low magnification with the aid of a microtiter plate reader. The growth in each cell was monitored periodically and growth/no-growth was recorded after 14 or 21 days.
# Clorococcum oleofaciens = test: MIC microtiter plate assay; type: cell-based; conditions: growth/no-growth after 14 or 21 days, 25°C
# Method: as §2
# Nostoc commune = test: MIC microtiter plate assay; type: cell-based; conditions: growth/no-growth after 14 or 21 days, 25°C
# Method: as §2
# Scendesmus quadricaudra = test: MIC microtiter plate assay; type: cell-based; conditions: growth/no-growth after 14 or 21 days, 25°C
# Method: as §2
# [2] = system: Selanastrum capricornutum; test: MIC microtiter plate assay; type: cell-based; conditions: growth/no-growth after 14 or 21 days, 25°C
# Method: as §2
# [3] = system: Phormidium luridum var. olivace; test: MIC microtiter plate assay; type: cell-based; conditions: Drouetiella lurida; growth/no-growth after 14 or 21 days, 25°C
# Method: as §2
# [4] = system: Synechococcus leopooliensis; test: MIC microtiter plate assay; type: cell-based; conditions: growth/no-growth after 14 or 21 days, 25°C
# Method: as §2
# [5] = system: mixed cooling tower culture; test: Simulated cooling tower water jar test, visual growth rating; type: cell-based; set-up: key to Visual Rating (7 Day Incubation): 0 = no growth; 1 = slight growth; 3 = moderate growth; 5 = abundant growth; conditions: for Visual Rating (7 Day Incubation): synthetic cooling tower water pH 8.5
# Method: A study was conducted with simulated cooling tower water to determine the effect of oxyfluorfen as an antialgal compound under simulated cooling tower conditions. Synthetic cooling tower water was made up with the following final concentrations (pH 8.5): Approximately 500 ml of the above solution was added to half-gallon jars and each jar was charged with given levels of oxyfluorfen (supplied as an emulsifiable concentrate); one jar contained no antialgal compound (control). Another set of jars was prepared with known levels of Isothiazolone A, a known antialgal compound for comparison purposes. Each jar was inoculated with 5 ml of a mixed cooling tower culture which was obtained from surface scrapings of industrial cooling towers; the mixed populations were maintained at room temperature in modified Allen's Media Formulation B described below in Part B. Each jar was inoculated two times per week to challenge the system. Jars were incubated under a 12 hour illumination cycle at room temperature (25°C) and were mixed manually (by swirling) three times per day. Visual observations were recorded daily using the rating scale described in Part C.
# [6] = system: mixed cooling tower algae; test: Paint algicide test (latex paint on tongue depressors); type: cell-based; set-up: key to 7 Days Algal Growth / 10 Days Algal Growth / 14 Days Algal Growth: 0 = No Algal Growth; 5 = Moderate Algal Growth; 10 = Heavy Algal Growth
# Method: Solutions of oxyfluorfen were prepared as follows in 1-ounce (28.3g) glass vials. Oxyfluorfen concentrate (0.17 g) was added to 19.83 g latex paint formulation (described below) to give 2-lb oxyfluorfen/100 gal. (2 kg/833 l) paint solution; in a similar manner, 0.08 g oxyfluorfen concentrate was added to 19.92 g latex paint formulation to give 1-lb/100-gal (1 kg/833 l) solution. Oxyfluorfen concentrate (1.0 g) was added to 19.0 g mixture of 2 parts xylene/1 part cyclohexanone; 0.17 g of the resultant solution was added to 19.83 g latex paint formulation to give 0.1-lb/100-gal oxyfluorfen solution; in a similar manner, 0.016 g of xylene/cyclohexanone solution was added to 19.984 g latex paint formulation to give 0.01-lb/100-gal solution.
# The solutions were stirred manually with Teflon spatulas and each was applied to two tongue depressors using #7 paint brushes. Two control tongue depressors were similarly prepared except without oxyfluorfen in the latex paint formulation. The tongue depressors were allowed to dry for one week and then inoculated with four 50 ul drops of mixed cooling tower algae (obtained from surface scrapings of industrial cooling towers and maintained in a modified Allen's media formulation, described in EXAMPLE 1).
# The tongue depressors were placed on plastic stages within large petri dishes and the area around the stages was filled with deionized water. The petri dishes were covered and placed in a Precision (Model 816) low temperature (25C) illuminated incubator for one week; at this point the tongue depressors were re-inoculated with one ml of the mixed cooling tower algae and returned to the incubator. The tongue depressors where then checked daily for algal growth (visual); results are found in Part C.
# Oxyfluorfen was added as a 24% emulsifiable concentrate in mixed organic solvents. The following formulation is a typical paint blend for testing of stabilization against algal activity. Texanol¿ is trimethyl-1,3-pentanediol monoisobutyrate supplied by Eastman Chemical; Rhoplex AC-64 is a commercially available latex of a copolymer of butyl acrylate and methyl methacrylate. This paint formulation has a pH of 9.4 and an initial viscosity of […] (Krebs units).
# [7] = system: mixed population of algae and blue-green bacteria; test: Model cooling tower biofilm efficacy (chlorophyll a); type: cell-based; conditions: one-per-week slug doses, biofilm harvested after four weeks
# Method: Oxyfluorfen was tested as a water treatment antialgal compound in model cooling towers which simulate pertinent process variables of industrial cooling towers. Compounds were dosed on a regular basis and the efficacy of the treatments was determined by measuring a parameter of algal or cyanobacterial biomass; specific operating parameters are described below.
# The basic design consisted of an acrylic plastic tower placed within a 17-liter polycarbonate basin. Each model contained a temperature control system, acid (H₂SO₄) or base (KOH) feed for pH control, air flow regulators, water recirculation system, and a makeup water supply. Two sets of five towers were placed in vented enclosures.
# The basin contained an overflow port positioned to provide a constant 8-liter working volume in the system. […]
# Illumination was provided by cool white and grow-lux fluorescent lights operated on a 19 hours per day cycle. The heating system for each unit consisted of an immersion heating element, temperature controller, two thermistors, and a direct readout thermometer. […]
# The model cooling towers were designed and operated to maintain a constant half-life in each unit. […] The rate of removal of a given compound from the system was thereby determined by the concentration of the material in the bulkwater and the rate of blowdown from the tower. […]
# [8] = system: 10 differents types of algae; conditions: all levels tested; 10 types of algae; cited from earlier work
# [9] = 10 ppm (0.01 lb/100-gal) in latex paint
# [10] = 100 ppm (0.10 lb/100-gal) in latex paint
# [11] = 1000 ppm (1.0 lb/100-gal) in latex paint
# [12] = 2000 ppm (2.0 lb/100-gal) in latex paint
smiles,measurement,setting,value
Oc1cccc(Oc2ccc(C(F)(F)F)cc2Cl)c1 [4A comparative],MIC,[1],1.6 µg/mL
same,MIC,Anabaena flos-aquae,3.1 µg/mL
CC(=O)Oc1cccc(Oc2ccc(C(F)(F)F)cc2Cl)c1 [4B comparative],MIC,[1],8 µg/mL
same,MIC,Anabaena flos-aquae,16 µg/mL
CC(=O)Oc1cc(Oc2ccc(C(F)(F)F)cc2Cl)ccc1[N+](=O)[O-] [4C comparative],MIC,[1],0.25 µg/mL
same,MIC,Anabaena flos-aquae,12.5 µg/mL
O=[N+]([O-])c1ccc(Oc2ccc(C(F)(F)F)cc2Cl)cc1O [4D comparative],MIC,[1],0.06 µg/mL
same,MIC,Anabaena flos-aquae,12.5 µg/mL
O=C(O)c1cc(Oc2ccc(C(F)(F)F)cc2Cl)ccc1[N+](=O)[O-] [4E comparative],MIC,[1],12.5 µg/mL
same,MIC,Anabaena flos-aquae,> 50 µg/mL
CCOC(=O)COC(=O)c1cc(Oc2ccc(C(F)(F)F)cc2Cl)ccc1[N+](=O)[O-] [4F comparative],MIC,[1],1 µg/mL
CCOC(=O)C(C)Oc1cc(Oc2ccc(C(F)(F)F)cc2Cl)ccc1[N+](=O)[O-] (stereo not shown) [Compound 4G],MIC,[1],0.25 µg/mL
"CCOc1cc(Oc2ccc(C(F)(F)F)cc2Cl)ccc1[N+](=O)[O-] [Oxyfluorfen, oxyfluorfen]",MIC,[1],< 0.004 µg/mL
same,MIC,Chlorella pyrenoidosa,0.125 ppm
same,MIC,Clorococcum oleofaciens,> 0.125 µg/mL
same,MIC,Nostoc commune,> 500 µg/mL
same,MIC,Scendesmus quadricaudra,< 0.002 µg/mL
same,MIC,[2],0.008 µg/mL
same,MIC,[3],> 500 µg/mL
same,MIC,[4],> 500 µg/mL
same,Visual Rating (7 Day Incubation),[5]; 0.005 ppm,0
same,Visual Rating (7 Day Incubation),[5]; 0.010 ppm,0
same,Visual Rating (7 Day Incubation),[5]; 0.025 ppm,0
same,Visual Rating (7 Day Incubation),[5]; 0.050 ppm,0
same,Visual Rating (7 Day Incubation),[5]; 0.100 ppm,0
same,Visual Rating (7 Day Incubation),[5]; 0.250 ppm,0
same,Visual Rating (7 Day Incubation),[5]; 0.500 ppm,0
same,levels effective for controlling cooling tower algae,[5]; simulated water chemistry conditions,≤ 5 ppb
same,7 Days Algal Growth,[6]; [9],0
same,10 Days Algal Growth,[6]; [9],2
same,14 Days Algal Growth,[6]; [9],3
same,7 Days Algal Growth,[6]; [10],0
same,10 Days Algal Growth,[6]; [10],1
same,14 Days Algal Growth,[6]; [10],1
same,7 Days Algal Growth,[6]; [11],0
same,10 Days Algal Growth,[6]; [11],0
same,14 Days Algal Growth,[6]; [11],0
same,7 Days Algal Growth,[6]; [12],0
same,10 Days Algal Growth,[6]; [12],0
same,14 Days Algal Growth,[6]; [12],0
same,levels that significantly reduced the rate of algal growth,"[6]; for up to 14 days, in latex paint",≤ 10 ppm
same,levels that totally inhibited algal growth,[6]; in latex paint,above 100 ppm
same,MIC,Anabaena flos-aquae,> 500 µg/mL
same,Chlorophyll a in Biofilm,[7]; 0.05 ppm,3.27 ug/cm2
same,activity at 0.05 ppm,"[7]; 672 h, read-out: Chlorophyll a in Biofilm % of control",24%
"O=C(O)c1cc(Oc2ccc(C(F)(F)F)cc2Cl)ccc1[N+](=O)[O-] [acifluorfen, 2-chloro-4-trifluoromethylphenyl-3′-carboxy-4′-nitrophenylether, sodium salt]",effectiveness on algae,[8],ineffective at all levels tested
